Assays:
[1] = tested on: redroot pigweed; assay: Test Example 5: herbicidal effect by foliage application, plastic box (Table 20, symbol N); format: in vivo, redroot pigweed (Amaranthus retroflexus); conditions: evaluated three weeks after application
Method in brief: (§1)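 Plants were sown into sterilized diluvial soil under about 1.5 cm cover and kept in a greenhouse at 25° C. to 30° C. Fourteen days on, foliage received an even spray of the diluted emulsion. Herbicidal or crop effect was judged three weeks afterwards.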

[2] = tested on: lambsquarters; assay: Test Example 4: herbicidal effect by soil treatment (Table 19, symbol O); format: in vivo, lambsquarters (Chenopodium album)
Method in brief: (§2)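 Pre-emergence style soil spray: seeds under ~1.5 cm sterilized diluvial soil received a uniform coat of emulsion diluted to the predetermined herbicide amount. Greenhouse 25–30° C; readout at week three on previously defined criteria.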

[3] = tested on: lambsquarters; assay: Test Example 5: herbicidal effect by foliage application, plastic box (Table 20, symbol O); format: in vivo, lambsquarters (Chenopodium album); conditions: evaluated three weeks after application
Method in brief: as §1

[4] = tested on: Japanese bulrush; assay: Test Example 1: herbicidal activity, application before weed generation under submerged conditions (Table 16, symbol B); format: in vivo, Japanese bulrush (Schoenoplectus juncoides)
Method in brief: (§3)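 Submerged Wagner pots (alluvial soil, 4 cm water) sown with weed seeds and planted with 2.5-leaf rice seedlings; emulsifiable concentrate diluted in water applied to water surface on sowing day. Held in greenhouse at 25-30 °C; injury scored 0-5 by herbicidal rate after three weeks.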

[5] = tested on: Chinese sprangletop; assay: Test Example 3: herbicidal effect by foliage application, Wagner pot (Table 18, symbol D); format: in vivo, chinese sprangletop (Leptochloa chinensis); conditions: 320 g/ha
Method in brief: (§4)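 Plants were sown in alluvial soil held under 0.1–0.5 cm standing water and grown 14 days in a greenhouse at 25–30 °C. An emulsifiable formulation, water-diluted to the set dose, was then sprayed onto the foliage, and effects were scored three weeks later using previously defined criteria.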

[6] = tested on: blackgrass; assay: Test Example 5: herbicidal effect by foliage application, plastic box (Table 20, symbol J); format: in vivo, blackgrass (Alopecurus myosuroides); conditions: evaluated three weeks after application
Method in brief: as §1

[7] = tested on: velvetleaf; assay: Test Example 5: herbicidal effect by foliage application, plastic box (Table 20, symbol M); format: in vivo, velvetleaf (Abutilon theophrasti); conditions: evaluated three weeks after application
Method in brief: as §1

[8] = tested on: chickweed; assay: Test Example 5: herbicidal effect by foliage application, plastic box (Table 20, symbol P); format: in vivo, common chickweed (Stellaria media); conditions: evaluated three weeks after application
Method in brief: as §1

[9] = tested on: windgrass; assay: Test Example 4: herbicidal effect by soil treatment (Table 19, symbol L); format: in vivo, windgrass (Apera spica-venti)
Method in brief: as §2

[10] = tested on: blackgrass; assay: Test Example 4: herbicidal effect by soil treatment (Table 19, symbol J); format: in vivo, blackgrass (Alopecurus myosuroides)
Method in brief: as §2

[11] = tested on: velvetleaf; assay: Test Example 4: herbicidal effect by soil treatment (Table 19, symbol M); format: in vivo, velvetleaf (Abutilon theophrasti)
Method in brief: as §2

[12] = tested on: barnyard grass; assay: Test Example 3: herbicidal effect by foliage application, Wagner pot (Table 18, symbol H); format: in vivo, barnyard grass (Echinochloa crus-galli); conditions: 320 g/ha
Method in brief: as §4

[13] = tested on: Italian ryegrass; assay: Test Example 4: herbicidal effect by soil treatment (Table 19, symbol K); format: in vivo, Italian ryegrass (Lolium multiflorum)
Method in brief: as §2

[14] = tested on: barnyard grass; assay: Test Example 4: herbicidal effect by soil treatment (Table 19, symbol H); format: in vivo, barnyard grass (Echinochloa crus-galli)
Method in brief: as §2

[15] = tested on: oval-leafed pondweed; assay: Test Example 1: herbicidal activity, application before weed generation under submerged conditions (Table 16, symbol C); format: in vivo, oval-leafed pondweed (Monochoria vaginalis)
Method in brief: as §3

[16] = tested on: green foxtail; assay: Test Example 5: herbicidal effect by foliage application, plastic box (Table 20, symbol G); format: in vivo, green foxtail (Setaria viridis); conditions: evaluated three weeks after application
Method in brief: as §1

[17] = tested on: wild oat; assay: Test Example 4: herbicidal effect by soil treatment (Table 19, symbol I); format: in vivo, wild oat (Avena fatua)
Method in brief: as §2

[18] = tested on: persian speedwell; assay: Test Example 5: herbicidal effect by foliage application, plastic box (Table 20, symbol R); format: in vivo, Persian speedwell (Veronica persica); conditions: evaluated three weeks after application
Method in brief: as §1

[19] = tested on: green foxtail; assay: Test Example 4: herbicidal effect by soil treatment (Table 19, symbol G); format: in vivo, green foxtail (Setaria viridis)
Method in brief: as §2

[20] = tested on: windgrass; assay: Test Example 5: herbicidal effect by foliage application, plastic box (Table 20, symbol L); format: in vivo, windgrass (Apera spica-venti); conditions: evaluated three weeks after application
Method in brief: as §1

[21] = tested on: barnyard grass; assay: Test Example 5: herbicidal effect by foliage application, plastic box (Table 20, symbol H); format: in vivo, barnyard grass (Echinochloa crus-galli); conditions: evaluated three weeks after application
Method in brief: as §1

[22] = tested on: late watergrass; assay: Test Example 1: herbicidal activity, application before weed generation under submerged conditions (Table 16, symbol A); format: in vivo, late watergrass (Echinochloa oryzicola)
Method in brief: as §3

[23] = tested on: rice flat sedge; assay: Test Example 3: herbicidal effect by foliage application, Wagner pot (Table 18, symbol E); format: in vivo, rice flat sedge (Cyperus iria); conditions: 320 g/ha
Method in brief: as §4

[24] = tested on: wild oat; assay: Test Example 5: herbicidal effect by foliage application, plastic box (Table 20, symbol I); format: in vivo, wild oat (Avena fatua); conditions: evaluated three weeks after application
Method in brief: as §1

[25] = tested on: southern crabgrass; assay: Test Example 5: herbicidal effect by foliage application, plastic box (Table 20, symbol F); format: in vivo, southern crabgrass (Digitaria ciliaris); conditions: evaluated three weeks after application
Method in brief: as §1

[26] = tested on: redroot pigweed; assay: Test Example 4: herbicidal effect by soil treatment (Table 19, symbol N); format: in vivo, redroot pigweed (Amaranthus retroflexus)
Method in brief: as §2

[27] = tested on: southern crabgrass; assay: Test Example 4: herbicidal effect by soil treatment (Table 19, symbol F); format: in vivo, southern crabgrass (Digitaria ciliaris)
Method in brief: as §2

[28] = tested on: Italian ryegrass; assay: Test Example 5: herbicidal effect by foliage application, plastic box (Table 20, symbol K); format: in vivo, Italian ryegrass (Lolium multiflorum); conditions: evaluated three weeks after application
Method in brief: as §1

[29] = tested on: chickweed; assay: Test Example 4: herbicidal effect by soil treatment (Table 19, symbol P); format: in vivo, common chickweed (Stellaria media)
Method in brief: as §2

[30] = amount of applied herbicide 320 g/ha, foliage application after 14-day growth
[31] = amount of applied herbicide 320 g/ha

## Cc1nn(C)c(=O)c(-c2c(-c3ccc(F)cc3)sc3c(C)cccc23)c1O [4-100]
[1]; [30]
  Herbicidal effect by foliage application, N: redroot pigweed: 4 (Herbicidal rate of 70% or more and less than 90%)
[2]; [31]
  Herbicidal effect by soil treatment, O: lambsquarters: 4 (Herbicidal rate of 70% or more and less than 90%)
[3]; [30]
  Herbicidal effect by foliage application, O: lambsquarters: 5 (Herbicidal rate of 90% or more (almost completely withered))
[4]; [31]
  Herbicidal effect, B: Japanese bulrush: 3 (Herbicidal rate of 40% or more and less than 70%)
[5]
  herbicidal effect on Chinese sprangletop (D): 0 (Herbicidal rate of 5% or less (almost no effect))
[6]; [30]
  Herbicidal effect by foliage application, J: blackgrass: 3 (Herbicidal rate of 40% or more and less than 70%)
[7]; [30]
  Herbicidal effect by foliage application, M: velvetleaf: 5 (Herbicidal rate of 90% or more (almost completely withered))
[8]; [30]
  Herbicidal effect by foliage application, P: chickweed: 5 (Herbicidal rate of 90% or more (almost completely withered))
[9]; [31]
  Herbicidal effect by soil treatment, L: windgrass: 0 (Herbicidal rate of 5% or less (almost no effect))
[10]; [31]
  Herbicidal effect by soil treatment, J: blackgrass: 0 (Herbicidal rate of 5% or less (almost no effect))
[11]; [31]
  Herbicidal effect by soil treatment, M: velvetleaf: 3 (Herbicidal rate of 40% or more and less than 70%)
[12]
  herbicidal effect on barnyard grass (H): 2 (Herbicidal rate of 20% or more and less than 40%)
[13]; [31]
  Herbicidal effect by soil treatment, K: Italian ryegrass: 0 (Herbicidal rate of 5% or less (almost no effect))
[14]; [31]
  Herbicidal effect by soil treatment, H: barnyard grass: 0 (Herbicidal rate of 5% or less (almost no effect))
[15]; [31]
  Herbicidal effect, C: oval-leafed pondweed: 1 (Herbicidal rate of 5% or more and less than 20%)
[16]; [30]
  Herbicidal effect by foliage application, G: green foxtail: 0 (Herbicidal rate of 5% or less (almost no effect))
[17]; [31]
  Herbicidal effect by soil treatment, I: wild oat: 0 (Herbicidal rate of 5% or less (almost no effect))
[18]; [30]
  Herbicidal effect by foliage application, R: persian speedwell: 5 (Herbicidal rate of 90% or more (almost completely withered))
[19]; [31]
  Herbicidal effect by soil treatment, G: green foxtail: 1 (Herbicidal rate of 5% or more and less than 20%)
[20]; [30]
  Herbicidal effect by foliage application, L: windgrass: 1 (Herbicidal rate of 5% or more and less than 20%)
[21]; [30]
  Herbicidal effect by foliage application, H: barnyard grass: 0 (Herbicidal rate of 5% or less (almost no effect))
[22]; [31]
  Herbicidal effect, A: late watergrass: 3 (Herbicidal rate of 40% or more and less than 70%)
[23]
  herbicidal effect on rice flat sedge (E): 0 (Herbicidal rate of 5% or less (almost no effect))
[24]; [30]
  Herbicidal effect by foliage application, I: wild oat: 0 (Herbicidal rate of 5% or less (almost no effect))
[25]; [30]
  Herbicidal effect by foliage application, F: southern crabgrass: 0 (Herbicidal rate of 5% or less (almost no effect))
[26]; [31]
  Herbicidal effect by soil treatment, N: redroot pigweed: 3 (Herbicidal rate of 40% or more and less than 70%)
[27]; [31]
  Herbicidal effect by soil treatment, F: southern crabgrass: 0 (Herbicidal rate of 5% or less (almost no effect))
[28]; [30]
  Herbicidal effect by foliage application, K: Italian ryegrass: 3 (Herbicidal rate of 40% or more and less than 70%)
[29]; [31]
  Herbicidal effect by soil treatment, P: chickweed: 3 (Herbicidal rate of 40% or more and less than 70%)

## Cc1nn(C)c(=O)c(-c2c(-c3ccc(OS(=O)(=O)C(F)(F)F)cc3)sc3ccc(F)cc23)c1O [2-075]
[1]; foliage application, 320 g/ha
  herbicidal effect on N: redroot pigweed: 2 (Herbicidal rate of 20% or more and less than 40%)
[2]; 320 g/ha
  herbicidal effect rating, O: lambsquarters: 3 (Herbicidal rate of 40% or more and less than 70%)
[3]; foliage application, 320 g/ha
  herbicidal effect on O: lambsquarters: 3 (Herbicidal rate of 40% or more and less than 70%)
[4]; 320 g/ha applied herbicide
  Herbicidal effect on B: Japanese bulrush (grade 0-5): 2 (Herbicidal rate of 20% or more and less than 40%)
[5]
  herbicidal effect on D (Chinese sprangletop), rating 0-5: 2 (Herbicidal rate of 20% or more and less than 40%)
[6]; foliage application, 320 g/ha
  herbicidal effect on J: blackgrass: 0 (Herbicidal rate of 5% or less (almost no effect))
[7]; foliage application, 320 g/ha
  herbicidal effect on M: velvetleaf: 3 (Herbicidal rate of 40% or more and less than 70%)
[8]; foliage application, 320 g/ha
  herbicidal effect on P: chickweed: 3 (Herbicidal rate of 40% or more and less than 70%)
[9]; 320 g/ha
  herbicidal effect rating, L: windgrass: 0 (Herbicidal rate of 5% or less (almost no effect))
[10]; 320 g/ha
  herbicidal effect rating, J: blackgrass: 0 (Herbicidal rate of 5% or less (almost no effect))
[11]; 320 g/ha
  herbicidal effect rating, M: velvetleaf: 0 (Herbicidal rate of 5% or less (almost no effect))
[12]
  herbicidal effect on H (barnyard grass), rating 0-5: 2 (Herbicidal rate of 20% or more and less than 40%)
[13]; 320 g/ha
  herbicidal effect rating, K: Italian ryegrass: 0 (Herbicidal rate of 5% or less (almost no effect))
[14]; 320 g/ha
  herbicidal effect rating, H: barnyard grass: 0 (Herbicidal rate of 5% or less (almost no effect))
[15]; 320 g/ha applied herbicide
  Herbicidal effect on C: oval-leafed pondweed (grade 0-5): 0 (Herbicidal rate of 5% or less (almost no effect))
[16]; foliage application, 320 g/ha
  herbicidal effect on G: green foxtail: 0 (Herbicidal rate of 5% or less (almost no effect))
[17]; 320 g/ha
  herbicidal effect rating, I: wild oat: 0 (Herbicidal rate of 5% or less (almost no effect))
[18]; foliage application, 320 g/ha
  herbicidal effect on R: persian speedwell: 5 (Herbicidal rate of 90% or more (almost completely withered))
[19]; 320 g/ha
  herbicidal effect rating, G: green foxtail: 0 (Herbicidal rate of 5% or less (almost no effect))
[20]; foliage application, 320 g/ha
  herbicidal effect on L: windgrass: 0 (Herbicidal rate of 5% or less (almost no effect))
[21]; foliage application, 320 g/ha
  herbicidal effect on H: barnyard grass: 0 (Herbicidal rate of 5% or less (almost no effect))
[22]; 320 g/ha applied herbicide
  Herbicidal effect on A: late watergrass (grade 0-5): 2 (Herbicidal rate of 20% or more and less than 40%)
[23]
  herbicidal effect on E (rice flat sedge), rating 0-5: 4 (Herbicidal rate of 70% or more and less than 90%)
[24]; foliage application, 320 g/ha
  herbicidal effect on I: wild oat: 0 (Herbicidal rate of 5% or less (almost no effect))
[25]; foliage application, 320 g/ha
  herbicidal effect on F: southern crabgrass: 0 (Herbicidal rate of 5% or less (almost no effect))
[26]; 320 g/ha
  herbicidal effect rating, N: redroot pigweed: 1 (Herbicidal rate of 5% or more and less than 20%)
[27]; 320 g/ha
  herbicidal effect rating, F: southern crabgrass: 0 (Herbicidal rate of 5% or less (almost no effect))
[28]; foliage application, 320 g/ha
  herbicidal effect on K: Italian ryegrass: 0 (Herbicidal rate of 5% or less (almost no effect))
[29]; 320 g/ha
  herbicidal effect rating, P: chickweed: 0 (Herbicidal rate of 5% or less (almost no effect))
